Test results published in patent US8481586B2, “Pyrrolo[2,3-a] carbazoles and use thereof as PIM kinase inhibitors” (Centre National de la Recherche Scientifique, priority 2008, dated 2013).
Like-named read-outs stand apart in the source and are kept apart here.

Experiments:
Assay type in all cases: biochemical
PIM-2 = PIM-2 (Homo sapiens (Human), UniProt Q9P1W9); experiment: inhibition test on kinase PIM-2 (residual activity, IC50)
Excerpt: (§1) MKK1, ERK 1, ERK 2, JNK1, JNK2, JNK3, p38a MAPK, p38b MAPK, p38g MAPK, p38s MAPK, ERK8, RSK1, RSK2, PDK1, PKBa, PKBb, SGK1, S6K1, PKA, ROCK2, PRK2, PKCa, PKC zeta, PKD1, MSK1, MNK1, MNK2, MAPKAP-K2, MAPKAP-K3, PRAK, CAMKKa, CAMKKb, CAMK1, SmMLCK, PHK, CHK1, CHK2, GSK3b, CDK2/cyclin A, PLK1, PLK1 (Okadaic acid), Aurora B, Aurora C, AMPK, MARK3, BRSK2, MELK, CK1, CK2, NEK2a, NEK6, NEK7, IKKb, PIM-1, PIM-2, PIM-3, SRPK1, MST2, EF2K, HIPK2, HIPK3, PAK-4, PAK5, PAK6, Src, Lck, CSK.
(§2) The results in terms of residual activity of the kinases after being placed in contact with the compounds of Examples 2, 3 and 5, at a concentration of 10 μM (10 μmol/L), are shown in Table 1 below.
(§3) The higher the residual activity of the kinase tested, the lower the inhibitory activity of the test compounds on the tested kinase.
(§4) The compounds according to the invention were then tested on the kinases PIM-1, PIM-2 and PIM-3.
(§5) The results in terms of percentage of residual activity after placing the compounds according to the invention in contact with each of the kinases PIM-1, PIM-2 and PIM-3 are given in Table 2 below.
(§6) The higher the residual activity, the lower the inhibitory activity of the test compounds.
(§7) The mean inhibitory concentrations (IC50) of certain preferred compounds of the invention were determined in the following manner: the IC50 values were measured after performing the inhibition tests on the kinases PIM-1, PIM-2 and PIM-3 at ten different concentrations for each test compound, and the IC50 value was determined from the dose-inhibition curves obtained.

PIM-3 = PIM-3 (Homo sapiens (Human), UniProt Q86V86); experiment: inhibition test on kinase PIM-3 (residual activity, IC50)
Excerpt: as §1, §2, §3, §4, §5, §6, §7

Aurora C = Aurora C (Homo sapiens (Human), UniProt Q9UQB9); experiment: kinase panel residual activity test; details: compound at 10 μM
Aurora C, sequence (Q9UQB9 whole entry): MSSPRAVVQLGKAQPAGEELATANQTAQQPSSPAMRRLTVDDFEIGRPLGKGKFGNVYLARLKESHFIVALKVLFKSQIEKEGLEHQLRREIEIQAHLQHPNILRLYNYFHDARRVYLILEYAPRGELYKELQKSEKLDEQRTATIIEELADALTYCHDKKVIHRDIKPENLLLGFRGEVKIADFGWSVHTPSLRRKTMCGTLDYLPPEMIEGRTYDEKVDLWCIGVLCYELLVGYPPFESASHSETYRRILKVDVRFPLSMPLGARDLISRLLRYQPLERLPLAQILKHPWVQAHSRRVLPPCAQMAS
Excerpt: as §1

ROCK2 = ROCK2 (Homo sapiens (Human), UniProt O75116); experiment: kinase panel residual activity test; details: compound at 10 μM
Excerpt: as §1

MKK1 = MKK1 (Homo sapiens (Human), UniProt Q02750); experiment: kinase panel residual activity test; details: compound at 10 μM
Excerpt: as §1

PDK1 = PDK1 (Homo sapiens (Human), UniProt O15530); experiment: kinase panel residual activity test; details: compound at 10 μM
Excerpt: as §1

JNK2 = JNK2 (Homo sapiens (Human), UniProt P45984); experiment: kinase panel residual activity test; details: compound at 10 μM
Excerpt: as §1

PKC zeta = PKC zeta (Homo sapiens (Human), UniProt Q05513); experiment: kinase panel residual activity test; details: compound at 10 μM
Excerpt: as §1

PKCa = PKCa (Homo sapiens (Human), UniProt P17252); experiment: kinase panel residual activity test; details: compound at 10 μM
Excerpt: as §1

CAMKKb = CAMKKb (Homo sapiens (Human), UniProt Q96RR4); experiment: kinase panel residual activity test; details: compound at 10 μM
Excerpt: as §1

PHK = experiment: kinase panel residual activity test; details: compound at 10 μM
Excerpt: as §1

RSK1 = RSK1 (Homo sapiens (Human), UniProt Q15418); experiment: kinase panel residual activity test; details: compound at 10 μM
Excerpt: as §1

CK1 = experiment: kinase panel residual activity test; details: compound at 10 μM
Excerpt: as §1

BRSK2 = BRSK2 (Homo sapiens (Human), UniProt Q8IWQ3); experiment: kinase panel residual activity test; details: compound at 10 μM
BRSK2, sequence (Q8IWQ3 whole entry, species assumed): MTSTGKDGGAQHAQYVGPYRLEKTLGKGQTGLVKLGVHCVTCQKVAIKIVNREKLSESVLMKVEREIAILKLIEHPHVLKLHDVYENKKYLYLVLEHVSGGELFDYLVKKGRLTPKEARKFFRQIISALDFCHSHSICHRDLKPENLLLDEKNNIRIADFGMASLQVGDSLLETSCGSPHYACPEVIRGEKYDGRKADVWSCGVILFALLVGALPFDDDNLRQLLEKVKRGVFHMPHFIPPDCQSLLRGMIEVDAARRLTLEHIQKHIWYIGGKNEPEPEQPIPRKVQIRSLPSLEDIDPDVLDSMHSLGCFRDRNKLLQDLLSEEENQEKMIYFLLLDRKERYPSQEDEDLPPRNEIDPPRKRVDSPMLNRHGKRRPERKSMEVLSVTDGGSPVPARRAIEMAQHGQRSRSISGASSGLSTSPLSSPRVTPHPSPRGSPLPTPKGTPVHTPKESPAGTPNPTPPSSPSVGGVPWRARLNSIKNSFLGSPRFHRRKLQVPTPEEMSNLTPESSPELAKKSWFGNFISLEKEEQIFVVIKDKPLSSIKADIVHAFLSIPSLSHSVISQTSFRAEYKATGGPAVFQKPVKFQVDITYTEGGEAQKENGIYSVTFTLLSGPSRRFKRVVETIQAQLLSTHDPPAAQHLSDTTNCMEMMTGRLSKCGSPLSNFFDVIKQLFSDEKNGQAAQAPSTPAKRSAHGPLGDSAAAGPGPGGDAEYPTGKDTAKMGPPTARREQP
Excerpt: as §1

CHK1 = CHK1 (Homo sapiens (Human), UniProt O14757); experiment: kinase panel residual activity test; details: compound at 10 μM
CHK1, sequence (O14757 whole entry, species assumed): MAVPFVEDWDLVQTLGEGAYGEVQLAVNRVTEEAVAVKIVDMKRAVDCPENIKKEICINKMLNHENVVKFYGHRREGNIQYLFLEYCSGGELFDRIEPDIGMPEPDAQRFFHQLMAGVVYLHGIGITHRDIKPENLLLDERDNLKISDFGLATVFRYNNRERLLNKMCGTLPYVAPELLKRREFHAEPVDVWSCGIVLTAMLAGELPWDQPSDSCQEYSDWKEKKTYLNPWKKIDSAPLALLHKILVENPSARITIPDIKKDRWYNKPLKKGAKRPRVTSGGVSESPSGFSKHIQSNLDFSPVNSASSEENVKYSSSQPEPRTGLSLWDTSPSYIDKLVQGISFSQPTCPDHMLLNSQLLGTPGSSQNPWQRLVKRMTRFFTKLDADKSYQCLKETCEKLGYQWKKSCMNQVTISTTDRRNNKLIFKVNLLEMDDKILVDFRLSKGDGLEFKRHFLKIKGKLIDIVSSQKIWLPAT
Excerpt: as §1

Src = Src (Homo sapiens (Human), UniProt P12931); experiment: kinase panel residual activity test; details: compound at 10 μM
Src, sequence (P12931 whole entry, looked up, species assumed): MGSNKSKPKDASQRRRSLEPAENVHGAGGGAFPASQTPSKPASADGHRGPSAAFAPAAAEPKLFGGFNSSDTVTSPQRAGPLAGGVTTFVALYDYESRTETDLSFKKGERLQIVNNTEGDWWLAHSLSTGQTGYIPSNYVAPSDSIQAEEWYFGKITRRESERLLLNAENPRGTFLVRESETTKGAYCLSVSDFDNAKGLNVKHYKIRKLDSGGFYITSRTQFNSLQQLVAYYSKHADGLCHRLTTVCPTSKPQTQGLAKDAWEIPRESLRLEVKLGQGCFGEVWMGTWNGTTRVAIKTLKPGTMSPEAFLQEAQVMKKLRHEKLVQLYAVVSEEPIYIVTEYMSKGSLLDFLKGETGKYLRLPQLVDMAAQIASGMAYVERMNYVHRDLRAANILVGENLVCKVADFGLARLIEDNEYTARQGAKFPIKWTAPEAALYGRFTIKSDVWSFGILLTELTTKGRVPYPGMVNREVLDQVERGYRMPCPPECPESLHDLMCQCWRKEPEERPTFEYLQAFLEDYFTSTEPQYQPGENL
Excerpt: as §1

CK2 = experiment: kinase panel residual activity test; details: compound at 10 μM
Excerpt: as §1

HIPK2 = HIPK2 (Homo sapiens (Human), UniProt Q9H2X6); experiment: kinase panel residual activity test; details: compound at 10 μM
Excerpt: as §1

JNK1 = JNK1 (Homo sapiens (Human), UniProt P45983); experiment: kinase panel residual activity test; details: compound at 10 μM
JNK1, sequence (P45983 whole entry, species assumed): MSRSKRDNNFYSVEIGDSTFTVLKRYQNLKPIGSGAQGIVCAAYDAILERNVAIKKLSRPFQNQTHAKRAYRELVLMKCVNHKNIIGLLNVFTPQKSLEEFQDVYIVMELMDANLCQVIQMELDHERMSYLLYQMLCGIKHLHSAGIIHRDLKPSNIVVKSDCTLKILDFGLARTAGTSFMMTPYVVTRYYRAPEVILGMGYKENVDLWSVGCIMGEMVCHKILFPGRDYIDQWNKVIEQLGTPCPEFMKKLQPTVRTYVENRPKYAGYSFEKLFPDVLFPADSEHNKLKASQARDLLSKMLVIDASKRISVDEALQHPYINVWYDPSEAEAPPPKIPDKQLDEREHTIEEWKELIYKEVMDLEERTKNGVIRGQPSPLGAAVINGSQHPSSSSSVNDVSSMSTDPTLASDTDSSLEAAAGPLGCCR
Excerpt: as §1

MNK2 = MNK2 (Homo sapiens (Human), UniProt Q9HBH9); experiment: kinase panel residual activity test; details: compound at 10 μM
Excerpt: as §1

ERK2 = ERK2 (Homo sapiens (Human), UniProt P28482); experiment: kinase panel residual activity test; details: compound at 10 μM
Excerpt: as §1

HIPK3 = HIPK3 (Homo sapiens (Human), UniProt Q9H422); experiment: kinase panel residual activity test; details: compound at 10 μM
HIPK3, sequence (Q9H422 whole entry, species assumed): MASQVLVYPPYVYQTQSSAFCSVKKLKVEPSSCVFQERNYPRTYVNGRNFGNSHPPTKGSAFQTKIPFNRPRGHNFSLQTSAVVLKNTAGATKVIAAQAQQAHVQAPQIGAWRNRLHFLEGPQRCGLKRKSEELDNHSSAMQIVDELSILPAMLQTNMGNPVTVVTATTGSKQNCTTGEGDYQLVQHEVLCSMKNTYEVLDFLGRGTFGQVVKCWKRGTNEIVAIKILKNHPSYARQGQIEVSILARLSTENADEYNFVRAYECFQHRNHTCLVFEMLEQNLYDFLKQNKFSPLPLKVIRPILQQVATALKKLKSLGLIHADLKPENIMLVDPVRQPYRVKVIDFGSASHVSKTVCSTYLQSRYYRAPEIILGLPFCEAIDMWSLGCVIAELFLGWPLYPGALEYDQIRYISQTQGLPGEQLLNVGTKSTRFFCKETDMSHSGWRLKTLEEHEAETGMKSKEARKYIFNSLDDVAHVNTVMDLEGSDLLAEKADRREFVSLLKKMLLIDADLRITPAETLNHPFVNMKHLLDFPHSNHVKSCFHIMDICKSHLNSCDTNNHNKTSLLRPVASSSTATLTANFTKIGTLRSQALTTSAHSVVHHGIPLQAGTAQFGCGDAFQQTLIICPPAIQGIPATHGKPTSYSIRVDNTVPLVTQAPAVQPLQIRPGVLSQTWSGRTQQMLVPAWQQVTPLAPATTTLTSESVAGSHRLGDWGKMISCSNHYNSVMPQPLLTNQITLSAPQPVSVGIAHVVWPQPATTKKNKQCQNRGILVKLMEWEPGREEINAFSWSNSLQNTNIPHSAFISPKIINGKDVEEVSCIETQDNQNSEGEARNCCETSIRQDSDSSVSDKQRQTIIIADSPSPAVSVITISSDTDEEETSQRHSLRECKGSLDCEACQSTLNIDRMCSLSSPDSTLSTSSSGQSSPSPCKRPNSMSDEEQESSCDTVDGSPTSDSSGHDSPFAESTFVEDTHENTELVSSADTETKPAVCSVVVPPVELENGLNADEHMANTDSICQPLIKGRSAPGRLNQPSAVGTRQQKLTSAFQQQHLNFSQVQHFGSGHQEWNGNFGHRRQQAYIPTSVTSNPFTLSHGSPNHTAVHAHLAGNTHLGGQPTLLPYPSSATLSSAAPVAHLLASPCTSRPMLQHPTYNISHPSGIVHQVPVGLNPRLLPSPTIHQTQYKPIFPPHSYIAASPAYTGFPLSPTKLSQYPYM
Excerpt: as §1

Lck = Lck (Homo sapiens (Human), UniProt P06239); experiment: kinase panel residual activity test; details: compound at 10 μM
Excerpt: as §1

MAPKAP-K3 = MAPKAP-K3 (Homo sapiens (Human), UniProt Q16644); experiment: kinase panel residual activity test; details: compound at 10 μM
Excerpt: as §1

PKD1 = PKD1 (Homo sapiens (Human), UniProt Q15139); experiment: kinase panel residual activity test; details: compound at 10 μM
Excerpt: as §1

RSK2 = RSK2 (Homo sapiens (Human), UniProt P51812); experiment: kinase panel residual activity test; details: compound at 10 μM
Excerpt: as §1

PRK2 = PRK2 (Homo sapiens (Human), UniProt Q16513); experiment: kinase panel residual activity test; details: compound at 10 μM
Excerpt: as §1

PAK4 = PAK4 (Homo sapiens (Human), UniProt O96013); experiment: kinase panel residual activity test; details: compound at 10 μM
Excerpt: as §1

PIM-1 = PIM-1 (Homo sapiens (Human), UniProt P11309); experiment: inhibition test on kinase PIM-1 (residual activity, IC50)
PIM-1, sequence (P11309 whole entry, species assumed): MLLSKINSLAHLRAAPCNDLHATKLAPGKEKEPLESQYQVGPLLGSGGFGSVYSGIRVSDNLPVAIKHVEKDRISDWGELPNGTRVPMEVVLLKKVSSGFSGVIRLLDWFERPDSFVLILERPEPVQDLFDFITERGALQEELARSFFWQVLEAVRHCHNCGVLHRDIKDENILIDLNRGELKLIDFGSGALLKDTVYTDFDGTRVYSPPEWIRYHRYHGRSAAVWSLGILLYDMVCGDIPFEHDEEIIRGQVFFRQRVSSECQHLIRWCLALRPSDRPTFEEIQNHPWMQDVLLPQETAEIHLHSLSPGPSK
Excerpt: as §1, §2, §3, §4, §5, §6, §7

[1] = compound at 10 μM, Table 1 panel, read-out: % residual activity PIM-2
[2] = product at 10 μmol/L, Table 2, N.I. = not inhibitory, read-out: Percentage of residual activity PIM-2
[3] = compound at 10 μM, Table 1 panel, read-out: % residual activity PIM-3
[4] = product at 10 μmol/L, Table 2, N.I. = not inhibitory, read-out: Percentage of residual activity PIM-3
[5] = ten concentrations, dose-inhibition curve
[6] = compound at 10 μM, Table 1 panel, read-out: % residual activity PIM-1
[7] = product at 10 μmol/L, Table 2, N.I. = not inhibitory, read-out: Percentage of residual activity PIM-1

PIM-2, sequence (Q9P1W9 whole entry, species assumed): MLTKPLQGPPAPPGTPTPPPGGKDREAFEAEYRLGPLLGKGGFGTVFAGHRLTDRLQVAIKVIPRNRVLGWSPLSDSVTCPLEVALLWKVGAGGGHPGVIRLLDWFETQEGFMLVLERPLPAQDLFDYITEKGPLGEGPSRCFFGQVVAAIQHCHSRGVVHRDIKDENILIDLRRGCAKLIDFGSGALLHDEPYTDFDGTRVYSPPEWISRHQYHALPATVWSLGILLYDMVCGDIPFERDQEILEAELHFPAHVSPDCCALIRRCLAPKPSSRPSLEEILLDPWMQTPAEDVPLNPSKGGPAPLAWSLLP

SMILES | remaining activity at 10 µM (PIM-2; [1]) | remaining activity at 10 µM (Aurora C) | remaining activity at 10 µM (PDK1) | remaining activity at 10 µM (JNK2) | remaining activity at 10 µM (PKC zeta) | remaining activity at 10 µM (PKCa) | remaining activity at 10 µM (CAMKKb) | % residual activity PHK (PHK) | remaining activity at 10 µM (BRSK2) | remaining activity at 10 µM (CHK1) | remaining activity at 10 µM (Src) | remaining activity at 10 µM (HIPK2) | remaining activity at 10 µM (JNK1) | remaining activity at 10 µM (MNK2) | remaining activity at 10 µM (HIPK3) | remaining activity at 10 µM (MAPKAP-K3) | remaining activity at 10 µM (PKD1) | remaining activity at 10 µM (RSK2) | remaining activity at 10 µM (PRK2) | remaining activity at 10 µM (PAK4) | other results
NC(=O)c1c[nH]c2c1ccc1c3ccccc3[nH]c12 [Example 5, 1,10-dihydropyrrolo[2,3-a]carbazole-3-carboxamide] | 27% | 61% | 67% | 115% | 78% | 80% | 79% | 43% | 32% | 113% | 96% | 42% | 106% | 57% | 87% | 75% | 19% | 97% | 54% | 16% | remaining activity at 10 µM (PIM-2; [2]): 27%; remaining activity at 10 µM (PIM-3; [3]): 9%; remaining activity at 10 µM (PIM-3; [4]): 9%; IC50 (PIM-3; [5]): 210 nM; remaining activity at 10 µM (ROCK2): 48%; remaining activity at 10 µM (MKK1): 80%; remaining activity at 10 µM (RSK1): 79%; % residual activity CK1 (CK1): 96%; % residual activity CK2 (CK2): 77%; remaining activity at 10 µM (ERK2): 93%; remaining activity at 10 µM (Lck): 78%; remaining activity at 10 µM (PIM-1; [6]): 9%; remaining activity at 10 µM (PIM-1; [7]): 9%; IC50 (PIM-1; [5]): 780 nM
O=Cc1c[nH]c2c1ccc1c3ccccc3[nH]c12 [Example 3, 1,10-dihydropyrrolo[2,3-a]carbazole-3-carbaldehyde] | – | 79% | 76% | 128% | 83% | 84% | 56% | 33% | 22% | 97% | 85% | 25% | 102% | 55% | 64% | 69% | 28% | 124% | 31% | 88% | –
c1ccc2c(c1)[nH]c1c2ccc2cc[nH]c21 [Example 2, 1,10-dihydropyrrolo[2,3-a]carbazole] | 62% | 85% | 86% | 118% | 91% | 111% | 93% | 90% | 58% | 123% | 98% | 59% | 102% | 95% | 97% | 89% | 83% | 129% | 95% | 84% | remaining activity at 10 µM (PIM-2; [2]): 62%; remaining activity at 10 µM (PIM-3; [3]): 10%; remaining activity at 10 µM (PIM-3; [4]): 10%; remaining activity at 10 µM (ROCK2): 86%; remaining activity at 10 µM (MKK1): 87%; remaining activity at 10 µM (RSK1): 105%; % residual activity CK1 (CK1): 107%; % residual activity CK2 (CK2): 91%; remaining activity at 10 µM (ERK2): 94%; remaining activity at 10 µM (Lck): 88%; remaining activity at 10 µM (PIM-1; [6]): 20%; remaining activity at 10 µM (PIM-1; [7]): 20%
